# Experimental data reported in US9000182B2, “2H-imidazol-4-amine compounds and their use as BACE inhibitors” (AstraZeneca AB, priority 2012, dated 2015).
# Assays:
# [1] = test system: sAPPβ release in SH-SY5Y cells; experiment: sAPPβ release assay; type: cell-based; details: 17 h incubation
# Method: SH-SY5Y cells were cultured in DMEM/F-12 with Glutamax, 10% FCS and 1% non-essential amino acids and cryopreserved and stored at −140° C. at a concentration of 7.5-9.5×10^6 cells per vial. Thaw cells and seed at a conc. of around 10000 cells/well in DMEM/F-12 with Glutamax, 10% FCS and 1% non-essential amino acids to a 384-well tissue culture treated plate, […] cell susp/well. The cell plates were then incubated for 7-24 h at 37° C., 5% CO2. The cell medium was removed, followed by addition of 30 μL compound diluted in DMEM/F-12 with Glutamax, 10% FCS, 1% non-essential amino acids and 1% PeSt to a final conc. of 1% DMSO. The compounds were incubated with the cells for 17 h (overnight) at 37° C., 5% CO2. Meso Scale Discovery (MSD) plates were used for the detection of sAPPβ release. MSD sAPPβ plates were blocked in 1% BSA in Tris wash buffer (40 μL/well) for 1 h on shake at r.t. and washed 1 time in Tris wash buffer (40 μL/well). 20 μL of medium was transferred to the pre-blocked and washed MSD sAPPβ microplates, and the cell plates were further used in an ATP assay to measure cytotoxicity. The MSD plates were incubated with shaking at r.t. for 2 h and the media discarded. 10 μL detection antibody was added (1 nM) per well followed by incubation with shaking at r.t. for 2 h and then discarded. 40 μL Read Buffer was added per well and the plates were read in a SECTOR Imager.
# [2] = target: T1, human β-Secretase (sBACE-Fc, soluble part AA 1-AA 460) (Homo sapiens (Human), UniProt P56817); experiment: Diluted TR-FRET assay; type: biochemical
# Method: […] Enzyme and compound in dimethylsulphoxide (final DMSO concentration 5%) was mixed and pre-incubated for 10 minutes at RT. […] The reaction was stopped with the addition of 0.35 vol Stop solution (NaAcetate, pH 9). The fluorescence of the product was measured on a Victor II plate reader with excitation wavelengths of 340-485 nm and emission wavelengths of 590-615 nm. […] The dimethylsulphoxide control, instead of test compound, defined the 100% activity level and 0% activity was defined by wells lacking enzyme (replaced with reaction buffer) or by a saturating dose of a known inhibitor, 2-amino-6-[3-(3-methoxyphenyl)phenyl]-3,6-dimethyl-5H-pyrimidin-4-one.
# [3] = target: T1, human β-Secretase (sBACE-Fc, soluble part AA 1-AA 460); experiment: TR-FRET assay; type: biochemical; details: standard TR-FRET assay (values without footnote a)
# Method: The β-secretase enzyme used in the TR-FRET is prepared as follows:
# The enzyme (truncated form) was diluted to 6 μg/mL (stock 1.3 mg/mL) and the TruPoint BACE1 Substrate to 200 nM (stock 120 μM) in reaction buffer (NaAcetate, chaps, triton x-100, EDTA pH4.5). Enzyme and compound in dimethylsulphoxide (final DMSO concentration 5%) was mixed and pre-incubated for 10 minutes at RT. Substrate was then added and the reaction was incubated for 15 minutes at RT. The reaction was stopped with the addition of 0.35 vol Stop solution (NaAcetate, pH 9). The fluorescence of the product was measured on a Victor II plate reader with excitation wavelengths of 340-485 nm and emission wavelengths of 590-615 nm. […] The dimethylsulphoxide control, instead of test compound, defined the 100% activity level and 0% activity was defined by wells lacking enzyme (replaced with reaction buffer) or by a saturating dose of a known inhibitor, 2-amino-6-[3-(3-methoxyphenyl)phenyl]-3,6-dimethyl-5H-pyrimidin-4-one.
# [4] = IC50 from the diluted FRET assay (footnote a): 50 times less enzyme, 6.5 h reaction time
# T1 sequence (P56817 22-460): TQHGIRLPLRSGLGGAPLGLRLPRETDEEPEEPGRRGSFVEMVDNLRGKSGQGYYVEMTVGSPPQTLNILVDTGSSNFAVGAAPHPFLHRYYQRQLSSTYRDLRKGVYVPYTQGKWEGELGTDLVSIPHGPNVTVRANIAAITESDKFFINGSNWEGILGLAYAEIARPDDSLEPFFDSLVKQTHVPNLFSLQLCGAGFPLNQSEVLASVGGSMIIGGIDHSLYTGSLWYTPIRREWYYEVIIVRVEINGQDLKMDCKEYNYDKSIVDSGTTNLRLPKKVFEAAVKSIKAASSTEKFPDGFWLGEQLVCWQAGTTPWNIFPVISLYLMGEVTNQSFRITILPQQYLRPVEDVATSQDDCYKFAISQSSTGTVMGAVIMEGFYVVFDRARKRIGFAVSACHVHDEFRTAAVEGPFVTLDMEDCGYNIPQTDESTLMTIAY
IC50 ([1]; Homo sapiens) [nM],IC50 [3] [nM],IC50 [1] [nM],Compound,further results
0.6,,,"CO[C@H]1CC[C@]2(CC1)Cc1ccc(OCCC(F)(F)F)cc1C21N=C(C)C(N)=N1 (stereo partly drawn) [Example 10, (1r,4r)-4-Methoxy-5″-methyl-6′-(3,3,3-trifluoropropoxy)-3′H-dispiro[cyclohexane-1,2′-indene-1′,2″-imidazol]-4″-amine]",
2.5,,,"CO[C@H]1CC[C@]2(CC1)Cc1ccc(OCC(C)F)cc1C21N=C(C)C(N)=N1 (stereo partly drawn) [Example 14, (1r,4r)-6′-(2-Fluoropropoxy)-4-methoxy-5″-methyl-3′H-dispiro[cyclohexane-1,2′-indene-1′,2″-imidazol]-4″-amine]",IC50 [2]: 6.7 nM
1.6,,,"CO[C@H]1CC[C@]2(CC1)Cc1ccc(C#CC(C)C)cc1C21N=C(C)C(N)=N1 (mixture of isomers) [Example 8, (1r,4r)-4-Methoxy-5″-methyl-6′-(3-methylbut-1-yn-1-yl)-3′H-dispiro[cyclohexane-1,2′-indene-1′,2″-imidazol]-4″-amine]",
,13,,"CC1=N[C@@]2(N=C1N)c1cc(OCC(C)C)ccc1C[C@]21CC[C@@H](O)CC1 (single isomer, unassigned; isomer 1) [2, isomer 1]",
,270,96,"CC1=N[C@@]2(N=C1N)c1cc(Br)ccc1C[C@]21CC[C@@H](O)CC1 (single isomer, unassigned; isomer 1) [5, isomer 1]",
,1300,,"CO[C@H]1CC[C@]2(CC1)Cc1ccc(O)cc1[C@@]21N=C(C)C(N)=N1 [Example 19, (1r,1′R,4R)-4″-Amino-4-methoxy-5″-methyl-3′H-dispiro[cyclohexane-1,2′-indene-1′,2″-imidazol]-6′-ol]",
,250,,"CC1=NC2(N=C1N)c1cc(OCCCF)ccc1C[C@]21CC[C@@H](OC(C)C)CC1 (stereo partly drawn) [Example 17, (1r,4r)-6′-(3-Fluoropropoxy)-5″-methyl-4-(propan-2-yloxy)-3′H-dispiro[cyclohexane-1,2′-indene-1′,2″-imidazol]-4″-amine]",
,,1.6,"CC1=N[C@]2(N=C1N)c1cc(OCCCF)ccc1C[C@]21CC[C@@H](OC(F)F)CC1 (single isomer, unassigned; isomer 1) [13, isomer 1]","IC50 [2, 4]: 3 nM"
16,,,"CC[C@@H](C)Oc1ccc2c(c1)C1(N=C(C)C(N)=N1)[C@]1(CC[C@H](OC)CC1)C2 (stereo partly drawn) [Example 18, (1r,4r)-6′-[(28)-Butan-2-yloxy]-4-methoxy-5″-methyl-3′H-dispiro[cyclohexane-1,2′-indene-1′,2″-imidazol]-4″-amine]",
2.4,,,"CO[C@H]1CC[C@]2(CC1)Cc1ccc(OCC(C)(F)F)cc1C21N=C(C)C(N)=N1 (stereo partly drawn) [Example 3, (1r,4r)-6′-(2,2-Difluoropropoxy)-4-methoxy-5″-methyl-3′H-dispiro[cyclohexane-1,2′-indene-1′,2″-imidazol]-4″-amine]",IC50 [2]: 6.7 nM
,,2,"CO[C@H]1CC[C@]2(CC1)Cc1ccc(C#CC3CCC3)cc1[C@]21N=C(C)C(N)=N1 (single isomer, unassigned; isomer 1) [7, isomer 1]",
2.1,,,"CO[C@H]1CC[C@]2(CC1)Cc1ccc(C#CC3CCC3)cc1C21N=C(C)C(N)=N1 (mixture of isomers) [Example 6, (1r,4r)-6′-(Cyclobutylethynyl)-4-methoxy-5″-methyl-3′H-dispiro[cyclohexane-1,2′-indene-1′,2″-imidazol]-4″-amine]",
,3700,,"CC1=NC2(N=C1N)c1cc(Br)ccc1C[C@]21CC[C@@H](OC(C)C)CC1 (stereo partly drawn) [Example 16, (1r,4r)-6′-Bromo-5″-methyl-4-(propan-2-yloxy)-3′H-dispiro[cyclohexane-1,2′-indene-1′,2″-imidazol]-4″-amine]",
,,0.7,"CO[C@H]1CC[C@]2(CC1)Cc1ccc(C#CC(C)C)cc1[C@]21N=C(C)C(N)=N1 (single isomer, unassigned; isomer 1) [9, isomer 1]",
,,0.7,"CO[C@H]1CC[C@]2(CC1)Cc1ccc(OCCC(F)(F)F)cc1[C@@]21N=C(C)C(N)=N1 (single isomer, unassigned; isomer 1) [11, isomer 1]",
,780,216,"CC1=N[C@@]2(N=C1N)c1cc(-c3cc(Cl)cc(C#N)c3)ccc1C[C@]21CC[C@@H](O)CC1 (single isomer, unassigned; isomer 2) [15, isomer 2]",
,,1.6,"CC1=N[C@]2(N=C1N)c1cc(-c3cc(Cl)cc(C#N)c3)ccc1C[C@]21CC[C@@H](O)CC1 (single isomer, unassigned; isomer 1) [15, isomer 1]","IC50 [2, 4]: 3.2 nM"
,2900,,"CC1=N[C@@]2(N=C1N)c1cc(OCCCF)ccc1C[C@]21CC[C@@H](OC(F)F)CC1 (single isomer, unassigned; isomer 2) [13, isomer 2]",
